A melting point compilation (Tetko et al.; mined from patent text by program, amines drawn as free bases though some values may be those of a salt)

`O=C(O)Cc1ccc(C2CC(=O)c3ccccc32)cc1` (configuration not stated) gave a melting point of 151 °C.
With `COc1ccc(C(=O)CCCCc2ccccc2)cc1OC` the melting point was 56 to 58 °C.
For `NNc1nc2cc(Cl)c(Cl)cc2nc1Cl`, the melting point was under 260 °C.
Work on `N#Cc1nc(Cl)c(Cl)c(NN)c1Cl` yielded a melting point of 178 to 181 °C.
`Fc1ccc(-c2nn3cccnc3c2-c2ccncc2)cc1` showed a melting point of 194 °C.
`CNC(=O)c1ccc(-c2cnc3[nH]c(=O)n(CC4CCCCC4)c3n2)cc1` showed a melting point of 273 to 275 °C.
With `Cc1cc(C)c2c(c1C)OC(C)(C)C2c1ccc(F)cc1` (configuration not stated) the melting point was 109 to 110 °C.
In the case of `CCn1nc(-c2ccncc2)c(C(C)=O)c(Nc2ccc(C(=O)O)cc2)c1=O`, the melting point is reported as 252 to 253 °C.
`OCCCNc1nnc(NCCCO)c2cc3ccccc3cc12` showed a melting point of 225 to 228 °C.
Work on `O=C(O)c1cc(NC(=O)C(CS)Cc2ccccc2)cc(C(F)(F)F)c1` (configuration not stated) yielded a melting point of 71 to 74 °C.
Molecule `Cc1ccc(C(=O)C2=C(O)C(=O)N(c3ccc(C)nn3)C2c2ccc(C)cc2C)cc1` (configuration not stated) has a melting point of 254 °C.
In the case of `Oc1cccc2c1CCC(n1cc[nH]c1=S)C2` (configuration not stated), the melting point is reported as 263 to 265 °C.
`COC(=O)c1ccc(Cn2c(C(=O)Nc3nc(-c4cc(OC)c(Cl)cc4OC)c(CCC4CCCCC4)s3)cc3cc(C)cc(C)c32)cc1` showed a melting point of 199 to 200 °C.
`Cc1ccc(N2C(=O)c3nccnc3C2OC(=O)N2CCNCC2)nc1` (configuration not stated) gave a melting point of 182 °C.
`Cc1c(C(F)(F)F)ncn(-c2cc([N+](=O)[O-])c(F)cc2F)c1=O` gave a melting point of 157 °C.
In the case of `COc1cc(C)c(C(=O)c2ccccc2)c(OC)c1OC`, the melting point is reported as 88 to 89 °C.
`Cc1ccc(F)c([Si](C)(C)C)c1C#N` gave a melting point of 71 to 73 °C.
In the case of `C[C@@H](n1cnc2cc(N)ccc2c1=O)[C@](O)(Cn1cncn1)c1ccc(F)cc1F`, the melting point is reported as 103 to 109 °C.
Molecule `CC/C(=C(\c1ccc(/C=C/C(=O)O)cc1)c1ccc(OC(=O)CN(C)C)cc1)c1ccccc1` has a melting point of 206 to 208 °C.
For `NC(=O)CN1C(=O)COc2cc(F)ccc21`, the melting point was 212 to 214 °C.
`COC(=O)c1cn(C(c2ccccc2)(c2ccccc2)c2ccccc2)c(I)n1` showed a melting point of 192 to 194 °C.
Molecule `Cc1ccnc(C(c2cc(F)ccc2F)S(=O)(=O)c2ccc(Cl)cc2)c1` (configuration not stated) has a melting point of 116 to 117 °C.
For `CN1C(=O)N(CC(CS(=O)(=O)c2ccc(-c3ccc(Cl)cc3)cc2)C(=O)O)C(=O)C1(C)C` (configuration not stated), the melting point was 148 to 150 °C.
Work on `CCOC(=O)NNC(=O)NCC(=O)OC` yielded a melting point of 116 to 121 °C.
`CC(C)(C)c1cc(-c2nnc(N)s2)cc(C(C)(C)C)c1O` gave a melting point of 261 °C.
`O=C(Nc1cc(Cl)ccc1Oc1ccc(Cl)cc1)c1ccncc1` showed a melting point of 214 to 215 °C.
For `Clc1nc(N2CCCCC2)c2nc(Cl)nc(N3CCCCC3)c2n1`, the melting point was 240 to 241 °C.
Molecule `O=c1c(Cl)c(Cl)cnn1C1CCCCO1` (configuration not stated) has a melting point of 74 to 76 °C.
With `CC(=O)N1CCN(Cc2ccc(O)cc2)CC1` the melting point was 130 to 132 °C.
Work on `N#Cc1cnn2c(C(F)(F)F)cc(-c3ccc(F)cc3)nc12` yielded a melting point of 198 °C.
Molecule `COc1ccc(C(CN(C)C)C2(O)CCCCC2)cc1` (configuration not stated) has a melting point of 78.3 to 79.5 °C.
With `Cc1ccc2ccc3c(c2c1)CC(=O)O3` the melting point was 170 to 171 °C.
`COc1ccc2c(c1)CCc1c-2cc(-c2ccccc2)n1-c1ccc(O)c(C(=O)O)c1` gave a melting point of 233 to 234 °C.
Molecule `COCC(c1ccccc1)N(C)Cc1c(-c2ccc(NC(=O)NOC)cc2)sc2c1c(=O)n(-c1ccccc1)c(=O)n2Cc1c(F)cccc1F` (configuration not stated) has a melting point of 169 to 172 °C.
Work on `COc1ccc(C(C)(C)C)cc1NC(=O)Nc1ccc(-c2cnc3c(c2)NC(=O)CS3(=O)=O)c2ccccc12` yielded a melting point of 209 to 211 °C.
For `Cc1cc2c(-c3ccccc3)c(CNC(=O)c3cc4ccccc4[nH]3)n(C)c(=O)c2cc1C`, the melting point was 303 to 305 °C.
With `Cc1ccc(/C=C/[C@@]2(O)C[C@H](O)CC(=O)O2)cc1` the melting point was 126 to 127 °C.
`CCOC(=O)C(=O)Nc1cc(NC=O)ccc1O` showed a melting point of over 300 °C.
`CN(C)S(=O)(=O)n1c(C#N)nc2ccccc21` gave a melting point of 93 °C.
Work on `CS(=O)C1C=Nc2cc(F)ccc2C1=O` (configuration not stated) yielded a melting point of 265 °C.
`OCC1OC(n2c(Cl)nc3c(NCc4ccccc4)ncnc32)C(O)C1O` (configuration not stated) gave a melting point of 90 to 92 °C.
In the case of `COc1cc(OC)nc(Oc2ccnc3c(Cl)cccc23)n1`, the melting point is reported as 115 to 118 °C.
Molecule `O=C(O)C1CCCc2c(noc2-c2ccc(Cl)cc2)C1` (configuration not stated) has a melting point of 231 to 233 °C.
Work on `COC(=O)CCCc1cc2cc(Cl)ccc2n1S(=O)(=O)c1ccc(N)c(N)c1` yielded a melting point of 158 to 160 °C.
Molecule `CNC(=O)c1ccn2nc(-c3ccccc3)c(-c3ccc(=O)n(C(C)C)n3)c2c1` has a melting point of 225 to 226 °C.
Work on `N#Cc1cc([N+](=O)[O-])ccc1OC12CC3CC(CC(C3)C1)C2` yielded a melting point of 187 to 189 °C.
With `CO[C@@H]1[C@@H](OC)[C@H](C)O[C@@H](ON=Cc2ccc(-c3cn(-c4ccc(OC(F)(F)F)cc4)cn3)cc2)[C@@H]1OC` the melting point was 178 °C.
Molecule `Nc1cc(Cl)nc(S(=O)Cc2ccc3ccccc3c2)n1` (configuration not stated) has a melting point of 222 to 223 °C.
Molecule `Cc1cc(CCNc2ncnc3c(F)ccc(F)c23)ccc1O` has a melting point of 244 to 251 °C.
For `Cc1[nH]nc(Oc2ccc([N+](=O)[O-])cc2C(F)(F)F)c1C`, the melting point was 97 to 99 °C.
In the case of `COC(=O)c1ccc(CC2=CCc3ccc(NC(=O)CC4CCCC4)cc32)c(OC)c1`, the melting point is reported as 178 to 179 °C.
With `CCCN1CCN(Cc2ccc3c(c2O)OCO3)CC1` the melting point was 115 to 117 °C.
`C[C@@H](COc1ccc(N2CCN(c3ccncc3)CC2)cc1)CC(=O)OC(C)(C)C` showed a melting point of 112 to 113 °C.
For `CNc1ncnc2ccc(I)cc12`, the melting point was 245 °C.
`Cc1ccnc(Nc2nc(-c3ccc(-c4ccccn4)s3)cs2)c1` showed a melting point of 185 to 187 °C.
Molecule `COc1ccc(S(=O)(=O)c2ccc3cc(Br)ccc3c2)cc1` has a melting point of 180 to 181 °C.
For `O=C1N(N2CCOCC2)c2ccccc2C1(Cc1ccncc1)Cc1ccncc1`, the melting point was 200 to 203 °C.
For `CCN(CC)CCNc1ccc(C2C(C(=O)OC)=C(C)NC(C)=C2C(=O)OC)cc1[N+](=O)[O-]`, the melting point was 161 °C.
With `O=Cc1c(Cl)ccc(Br)c1F` the melting point was 92 to 93 °C.
With `CC(C)(C)c1ccc(C(=O)Nc2cn3cc(-n4cccc4)ccc3n2)cc1` the melting point was 274 to 275 °C.
For `O=C(O)Cc1ccccc1Sc1ccc(F)c(F)c1`, the melting point was 54 to 57 °C.
In the case of `COC(=O)C(C(=O)O)=C1SC=CS1`, the melting point is reported as 48 to 51 °C.
With `CN1CCCCC1CCn1nc(-c2c(-c3ccccc3)nn3ccccc23)ccc1=O` (configuration not stated) the melting point was 114 to 116 °C.
Molecule `CN(C)c1ccc(NC(=O)Cn2c(-c3ccc(Cl)cc3)nc3cccnc32)cc1` has a melting point of 245 to 246 °C.
`Oc1cccc2c1C[C@@H](O)[C@H](O)C2` (relative stereo) gave a melting point of 183 to 184 °C.
With `COc1ccccc1N1CCN(CCCCNc2cc(Cl)nnc2Cl)CC1` the melting point was 155 to 170 °C.
Work on `CCOC(=O)c1ncn2c1CN=C(Cl)c1cc(OC)ccc1-2` yielded a melting point of 186 °C.
Work on `CCOC(=O)C(=CNc1nonc1C)C(=O)c1cc(F)c(Cl)nc1Cl` yielded a melting point of 139 to 142 °C.
`Cc1nc(NC(=O)c2cc(F)cc(F)c2)sc1C(=O)NCc1ccccc1` showed a melting point of 84 to 86 °C.
`CC1(C)C(=O)Nc2ccc(-c3cccc(Cl)c3)cc21` showed a melting point of 188 to 189 °C.
With `CC1(C2CCC3C4CCC5CC(O)CCC5(C)C4C(OC(=O)CCl)CC32C)OCCO1` (configuration not stated) the melting point was 194 to 202 °C.
`O=C(c1ccccc1)c1cccc2c1OCC2C(=O)O` (configuration not stated) gave a melting point of 163 to 165 °C.
Work on `CCOC(=O)Cc1c(C)n(Cc2ccc3ccccc3c2)c2ccc(OCc3csc(-c4ccccc4)n3)cc12` yielded a melting point of 118 to 119 °C.
`O=Cc1ccc(OCCBr)cc1` showed a melting point of 49.5 to 50 °C.
Work on `Cc1[nH]cc2c(=O)n(-c3ccc(Cl)cc3)nc-2c1-c1cccc(I)c1` yielded a melting point of 306 to 312 °C.
Work on `Clc1c(CBr)ccc2c(Cl)c(CBr)ccc12` yielded a melting point of 219 to 221 °C.
In the case of `CN(C)CCOc1cc2c(Nc3ccc(Oc4ccccc4)cc3)c(C#N)cnc2cn1`, the melting point is reported as 159 to 161 °C.
For `Cc1cc(-c2cnn3c(C(F)(F)F)cc(-c4ccc(Cl)c(Cl)c4)nc23)cc(C)n1`, the melting point was 281 °C.
For `COc1ccc(CN(CCN(C)CCCCNC(=NCCCOc2cccc(CN3CCCCC3)c2)NC#N)c2ccccn2)cc1`, the melting point was 106 to 108 °C.
Molecule `COC(=O)C1=CC(C)(N)NC(C2CC2)=N1` (configuration not stated) has a melting point of 152 to 153 °C.
For `CCOC(=O)Cc1ccc(NC(=O)C(COS(C)(=O)=O)NS(=O)(=O)c2ccc(F)cc2)cc1` (racemic), the melting point was 81 to 82 °C.
For `O=C(NCCCn1ccnc1)c1cccc(Cl)c1`, the melting point was 125 to 127 °C.
With `Cc1ccccc1C(=O)Oc1cc(O)ccn1` the melting point was 116 to 119 °C.
Work on `c1ccc(-c2ccc(CCNc3ccncc3)cc2)cc1` yielded a melting point of 140 °C.
`Cc1cc(-c2nc3c(C)cc(Cl)nn3c2-c2ccnc(NC(=O)c3ccc(F)cc3)c2)ccc1F` showed a melting point of 235 to 236 °C.
With `O=C(CCCCC1CCSS1)N1CCc2ccccc21` (configuration not stated) the melting point was 65 to 66 °C.
For `CCOC(=O)c1oc(Oc2ccccc2)nc1C(F)(F)F`, the melting point was 75 to 77 °C.
In the case of `O=C(O)CC(O)(Cn1cncn1)c1ccc(F)cc1F` (configuration not stated), the melting point is reported as 185 to 187 °C.
`N#Cc1ccc(N(CCOc2ccc(OCc3ccccc3)c(Br)c2)n2cnnc2)cc1` gave a melting point of 163 to 166 °C.
`CCC(CO)Nc1ccc(Cl)cc1[N+](=O)[O-]` (configuration not stated) gave a melting point of 45 °C.
For `CCOC(=O)CC1CCC2C3CC=C4C(C)(C)C(O)CCC4(C)C3CCC12C` (configuration not stated), the melting point was 127 to 129 °C.
`O=C(O)c1ccc(-c2ccnc(-c3cc(-c4ccc(C(=O)O)s4)ccn3)c2)s1` showed a melting point of over 300 °C.
`CCCc1c(OCCOc2ccc([N+](=O)[O-])cc2)ccc(C(C)=O)c1O` gave a melting point of 124 to 125 °C.
Work on `CCOC(=O)c1ccc(CCN2CCN(Cc3ccc(OC)cc3)CC2)cc1` yielded a melting point of 75 to 76 °C.
`CC(NC(=S)NCC(COC(=O)C(C)(C)C)Cc1ccc(C(C)(C)C)cc1)c1ccc(NS(C)(=O)=O)c(F)c1` (configuration not stated) showed a melting point of 78 °C.
For `CN1CCN(C(=O)c2cc(S(=O)(=O)NC3CCCCC3)ccc2N)CC1`, the melting point was 167 to 168 °C.
Work on `O=C(O)c1cc(Br)nc(Br)c1` yielded a melting point of 179 to 187 °C.
`CCOC(=O)C1CCN(c2nc(CCl)c(C)s2)CC1` gave a melting point of 76 to 77 °C.
`O=C(CCl)Nc1cccc([N+](=O)[O-])c1` showed a melting point of 110 to 112 °C.
`COC(=O)c1cccc(CN2CCOc3ccc(N)cc32)c1` gave a melting point of 167 to 171 °C.
`O=C(O)CCCC(=O)c1cccc([N+](=O)[O-])c1` gave a melting point of 135 to 137 °C.
Work on `N#CC1CN1C(=O)CCN1C(=O)c2ccccc2C1=O` (configuration not stated) yielded a melting point of 168 to 170 °C.
